Target: T1, human PDE2A1 (Homo sapiens, UniProt O00408)
T1 construct: GST; purchased BPS Bioscience (San Diego, Calif.) 60020; host or cells: insect cells
Assay: IMAP FP PDE selectivity panel, human PDE2A1
Format: biochemical
Settings: Lab B; read-out: Human PDE2 Ki (nM) Lab B
In short: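 Human PDE2A1 tested alongside PDE1–11 by IMAP fluorescence polarization at room temperature. Substrate was 50 nM FAM-cAMP plus 1000 nM cGMP, buffer pH 7.2 with MgCl2 and DTT, enzyme set for 20% conversion. Ten 3-fold compound dilutions; 60 min reaction, then IMAP binding solution, 1 h, parallel/perpendicular fluorescence read.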

T1 sequence (O00408 1-920 isoform O00408-2): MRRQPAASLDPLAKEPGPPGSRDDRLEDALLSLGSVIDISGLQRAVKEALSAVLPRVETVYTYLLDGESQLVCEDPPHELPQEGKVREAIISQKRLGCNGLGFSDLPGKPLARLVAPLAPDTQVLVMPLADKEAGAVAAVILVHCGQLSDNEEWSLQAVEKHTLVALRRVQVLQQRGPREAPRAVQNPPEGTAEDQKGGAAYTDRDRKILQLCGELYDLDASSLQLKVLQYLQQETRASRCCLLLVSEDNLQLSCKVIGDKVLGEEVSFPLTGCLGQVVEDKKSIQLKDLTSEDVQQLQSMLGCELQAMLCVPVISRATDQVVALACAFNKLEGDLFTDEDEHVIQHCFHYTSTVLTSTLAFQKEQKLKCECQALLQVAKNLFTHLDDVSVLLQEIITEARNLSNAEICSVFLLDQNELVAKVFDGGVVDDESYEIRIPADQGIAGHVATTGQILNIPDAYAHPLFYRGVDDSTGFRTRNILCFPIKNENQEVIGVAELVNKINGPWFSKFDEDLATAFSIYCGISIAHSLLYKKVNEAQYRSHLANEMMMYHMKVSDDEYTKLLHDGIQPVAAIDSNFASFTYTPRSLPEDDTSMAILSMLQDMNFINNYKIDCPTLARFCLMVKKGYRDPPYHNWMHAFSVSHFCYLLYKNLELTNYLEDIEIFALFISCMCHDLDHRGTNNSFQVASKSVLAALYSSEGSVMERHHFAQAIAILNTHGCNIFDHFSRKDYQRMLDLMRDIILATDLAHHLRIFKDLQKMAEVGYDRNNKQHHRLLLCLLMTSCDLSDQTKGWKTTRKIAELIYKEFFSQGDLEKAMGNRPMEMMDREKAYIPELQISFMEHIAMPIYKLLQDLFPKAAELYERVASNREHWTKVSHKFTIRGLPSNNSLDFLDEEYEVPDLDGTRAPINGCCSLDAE

| SMILES | Ki |
| --- | --- |
| Cc1cc(N[C@@H](c2ccc(C3(C)CC3)cc2)C(C)C)n2ncnc2n1 [Example 24, 5-Methyl-N-{(1R)-2-methyl-1-[4-(1-methyl-cyclopropyl)phenyl]propyl} [1,2,4]triazolo[1,5-a]pyrimidin-7-amine] | 26 nM |
| Cc1cc(N[C@@H](c2ccc(C3CC3)cc2F)C(C)C)n2ncnc2n1 [Example 25, N-[(1R)-1-(4-Cyclopropyl-2-fluorophenyl)-2-methylpropyl]-5-methyl[1,2,4]triazolo[1,5-a] pyrimidin-7-amine] | 9.9 nM |
| Cc1cc(N[C@@H](c2ccc(C(F)(F)F)cc2)C(C)(C)C)n2ncnc2n1 [Example 26, N-{(1R)-2,2-Dimethyl-1-[4-(trifluoromethyl)phenyl]propyl}-5-methyl[1,2,4]triazolo[1,5-a] pyrimidin-7-amine] | 11 nM |
| Cc1cc(N[C@@H](c2ccc(C(F)(F)F)c(F)c2)C(C)(C)C)n2ncnc2n1 [Example 27, N-{(1R)-1-[3-Fluoro-4-(trifluoromethyl)phenyl]-2,2-dimethylpropyl}-5-methyl[1,2,4]triazolo[1,5-a] pyrimidin-7-amine] | 10 nM |
| Cc1cc(N[C@@H](c2ccc(OC(F)(F)F)c(F)c2)C(C)(C)C)n2ncnc2n1 [Example 28, N-{(1R)-1-[3-Fluoro-4-(trifluoromethoxy)phenyl]-2,2-dimethylpropyl}-5-methyl[1,2,4]triazolo[1,5-a] pyrimidin-7-amine] | 7.1 nM |
| Cc1cc(N[C@@H](c2ccc(SC(F)(F)F)cc2)C(C)(C)C)n2ncnc2n1 [Example 29, N-[(1R)-2,2-Dimethyl-1-{4-[(trifluoromethyl)sulfanyl]phenyl}propyl]-5-methyl[1,2,4]triazolo[1,5-a] pyrimidin-7-amine] | 2.1 nM |
| Cc1cc(N[C@@H](c2ccc(C3CC3)cc2)C(C)(C)C)n2ncnc2n1 [Example 30, N-[(1R)-1-(4-Cyclopropyl-phenyl)-2,2-dimethylpropyl]-5-methyl[1,2,4]triazolo[1,5-a] pyrimidin-7-amine] | 4.4 nM |
| Cc1cc(N[C@@H](c2ccc(C3CC3)c(F)c2)C(C)(C)C)n2ncnc2n1 [Example 31, N-[(1R)-1-(4-Cyclopropyl-3-fluorophenyl)-2,2-dimethylpropyl]-5-methyl[1,2,4]triazolo[1,5-a] pyrimidin-7-amine] | 4.9 nM |
| Cc1cc(N[C@@H](c2ccc(OC(F)(F)F)cc2)C(C)(C)C)n2ncnc2n1 [Example 32, N-{(1R)-2,2-Dimethyl-1-[4-(trifluoromethoxy)phenyl]propyl}-5-methyl[1,2,4]triazolo[1,5-a] pyrimidin-7-amine] | 6.6 nM |
| Cc1cc(N[C@@H](c2ccc(OC(F)F)cc2)C(C)(C)C)n2ncnc2n1 [Example 33, N-{(1R)-1-[4-(Difluoromethoxy)phenyl]-2,2-dimethylpropyl}-5-methyl[1,2,4]triazolo[1,5-a] pyrimidin-7-amine] | 17 nM |
| Cc1cc(N[C@@H](c2ccc(C(F)(F)F)cc2F)C(C)(C)C)n2ncnc2n1 [Example 34, N-{(1R)-1-[2-Fluoro-4-(trifluoromethyl)phenyl]-2,2-dimethylpropyl}-5-methyl[1,2,4]triazolo[1,5-a] pyrimidin-7-amine] | 15 nM |
| Cc1cc(N[C@@H](c2ccc(CC(F)(F)F)cc2)C(C)(C)C)n2ncnc2n1 [Example 35, N-{(1R)-2,2-Dimethyl-1-[4-(2,2,2-trifluoroethyl)phenyl]propyl}-5-methyl[1,2,4]triazolo[1,5-a] pyrimidin-7-amine] | 7.8 nM |
| Cc1cc(N[C@@H](c2ccc(S(F)(F)(F)(F)F)cc2)C(C)(C)C)n2ncnc2n1 [Example 36, N-{(1R)-2,2-Dimethyl-1-[4-(pentafluoro-λ^6-sulfanyl)phenyl]propyl}-5-methyl [1,2,4]triazolo[1,5-a]pyrimidin-7-amine] | 6.3 nM |
| Cc1cc(N[C@@H](c2ccc(S(F)(F)(F)(F)F)cc2)C2CC2)n2ncnc2n1 [Example 37, N-{(1R)-Cyclopropyl[4-(pentafluoro-λ^6-sulfanyl)phenyl]methyl}-5-methyl[1,2,4]triazolo[1,5-a] pyrimidin-7-amine] | 22 nM |
| Cc1cc(N[C@@H](c2ccc(C3CC3)c(F)c2)C2CC2)n2ncnc2n1 [Example 38, N-[(R)-Cyclopropyl(4-cyclopropyl-3-fluorophenyl)methyl]-5-methyl[1,2,4]triazolo[1,5-a] pyrimidin-7-amine] | 20 nM |
| Cc1cc(N[C@@H](c2ccc(C(F)(F)F)c(F)c2)C2CC2)n2ncnc2n1 [Example 39, N-{(R)-Cyclopropyl[3-fluoro-4-(trifluoromethyl)phenyl]methyl}-5-methyl[1,2,4]triazolo[1,5-a] pyrimidin-7-amine] | 49 nM |
| Cc1cc(N[C@@H](c2ccc(SC(F)(F)F)cc2)C2CC2)n2ncnc2n1 [Example 40, N-[(R)-Cyclopropyl{4-[(trifluoromethyl)sulfanyl]phenyl}methyl]-5-methyl[1,2,4]triazolo[1,5-a] pyrimidin-7-amine] | 14 nM |
| Cc1cc(N[C@@H](c2ccc(SC(F)(F)F)c(F)c2)C2CC2)n2ncnc2n1 [Example 41, N-[(R)-Cyclopropyl{3-fluoro-4-[(trifluoromethyl)sulfanyl]phenyl}methyl]-5-methyl[1,2,4]triazolo[1,5-a] pyrimidin-7-amine] | 19 nM |
| Cc1cc(N[C@@H](c2ccc(C3CC3)cc2)C2CC2)n2ncnc2n1 [Example 42, N-[(R)-Cyclopropyl(4-cyclopropylphenyl)methyl]-5-methyl[1,2,4]triazolo[1,5-a] pyrimidin-7-amine] | 20 nM |
| Cc1cc(N[C@@H](c2ccc(C(F)(F)F)c(F)c2)C2(C)CC2)n2ncnc2n1 [Example 43, N-[(R)-[3-Fluoro-4-(trifluoromethyl)phenyl](1-methylcyclopropyl)methyl]-5-methyl[1,2,4]triazolo[1,5-a] pyrimidin-7-amine] | 23 nM |
| Cc1cc(N[C@@H](c2ccc(S(F)(F)(F)(F)F)cc2)C2(C)CC2)n2ncnc2n1 [Example 44, 5-Methyl-N-{(R)-(1-methylcyclopropyl)[4-(pentafluoro-λ^6-sulfanyl)phenyl]methyl} [1,2,4]triazolo[1,5-a]pyrimidin-7-amine] | 18 nM |
| Cc1cc(NC(C)(C)c2ccc(OC(F)(F)F)c(F)c2)n2ncnc2n1 [Example 45, N-{1-[3-Fluoro-4-(trifluoromethoxy)phenyl]-1-methylethyl}-5-methyl[1,2,4]triazolo[1,5-a]pyrimidin-7-amine] | 207 nM |
| Cc1cc(NC(C)(C)c2ccc(C(F)(F)F)c(F)c2)n2ncnc2n1 [Example 46, N-{1-[3-Fluoro-4-(trifluoromethyl)phenyl]-1-methylethyl}-5-methyl [1,2,4]triazolo[1,5-a]pyrimidin-7-amine] | 48 nM |
| Cc1cc(NC(C)(C)c2ccc(C(F)(F)F)cc2Cl)n2ncnc2n1 [Example 47, N-{1-[2-Chloro-4-(trifluoromethyl)phenyl]-1-methylethyl}-5-methyl [1,2,4]triazolo[1,5-a]pyrimidin-7-amine] | 161 nM |
| COc1cc(C(F)(F)F)ccc1C(C)(C)Nc1cc(C)nc2ncnn12 [Example 48, N-{1-[2-Methoxy-4-(trifluoromethyl)phenyl]-1-methylethyl}-5-methyl [1,2,4]triazolo[1,5-a]pyrimidin-7-amine] | 474 nM |
| Cc1cc(NC(C)(C)c2ccc(OC(F)(F)F)cc2)n2ncnc2n1 [Example 49, 5-Methyl-N-{1-methyl-1-[4-(trifluoromethoxy)phenyl]ethyl} [1,2,4]triazolo[1,5-a]pyrimidin-7-amine] | 301 nM |
